The values that follow come from PMC8049054, “Systematic Assessment of Fragment Identification for Multitarget Drug Design” (Chemmedchem, 2021).

The subject of one test is T1, RXRα.
T1 construct: MBP (N, cleaved yes); poly-N-tag, His8-tag, TEV site (N, cleaved yes); made in house; host or cells: E. coli T7-express with pGro7 (GroEL/ES)
The test is described as follows: Differential scanning fluorimetry (DSF) screen on RXRα. Particulars: 500 μM fragment, mean of duplicates. Format: binding. From the text: (§1) For the primary screen of this fragment library, we employed differential scanning fluorimetry (DSF, also known as thermal shift). DSF is generally applicable to a large panel of protein targets and provides a robust, low‐cost screening technology for fragment‐based approaches. ^[20] All five proteins of our interest are soluble and were recombinantly expressed in Escherichia coli. We performed an initial fragment screen on all five targets by DSF. The use of a uniform screening method for all targets ensured consistent data and provided the opportunity to identify false positive hits which interfered with the screening technology. The conditions of the DSF assay were optimized for the desired screening and validated with reference compounds (Table S1 in the Supporting Information). Compounds causing a positive thermal shift ΔT m≥1.0 °C were considered as active.
(§2) DSF measurement of the PDFL (single concentration of 500 μM, duplicates, 96‐well format) on the five proteins retrieved 19 fragment hits on sEH, 28 on LTA4H, 12 on 5‐LOX, 16 on RXRα, and 14 on FXR, respectively. Melting point distributions of the screening library for all five targets are depicted in Figure 2. Amongst the hits, three compounds (Table S2) gave a positive signal on all five proteins likely qualifying them as pan assay interference compounds (PAINS). ^[21] Fragments binding to multiple targets (Scheme 1) were identified for seven out of ten target combinations (Figure 2, Table 1). Among them, fragments 4, 6, 7, and 9 match previously identified privileged scaffolds for fatty acid mimetics. ^[14] […] Active ligands containing N‐phenylbenzamide 6 and the N‐phenylbenzylamine 7 have been described for four of the protein targets. Furthermore, indole, which has been characterized as a privileged heterocycle for fatty acid mimetics, ^[14] is present in fragments 5 and 10. Dual 5‐LOX/RXR ligand 1 was present in 5‐LOX inhibitors, while dual FXR/LTA4H modulator 3 is found among known FXR ligands. Fragments 2 (sEH/5‐LOX) and 8 (LTA4H/RXR) are novel scaffolds not appearing in known ligands of any of the five targets.
(§3) Figure S3: SDS page of the purified proteins (proteins RXRα and FXR after TEV cleavage) using a 14% polyacrylamide gel, which was stained with coomassi. Precision Plus Protein™ Unstained Protein Standard s (Bio-Rad Laboratories, Inc. ) was used […]
(§4) All experiments were performed as duplicates using MicroAmp fast 96 -well plates. Each plate contained 80 different compound wells and 16 DMSO control wells. First 0.8 µl of a 25 mM Preswick Library Fragment dilution in DMSO or pure DMSO were placed in each of the well (final concentration 500 µM). Then 39.2 µl of the master mi x (containing protein, Triton x -100, SYPRO® Orange Protein Gel Stain and buffer that corresponds to the tested protein) were added.
Table S4: Final concentrations in DSF experiments: […]
(§5) The measurements were performed using a iCycler iQ™ Single -Color Real Time PCR device with a heat rate of 1 °C per min, an excitation wavelength of 490 nm and an emission wavelength of 570 nm. The first derivation calculated by MyiQ Op tical Software 1.0 was analyzed using Microsoft Office Excel 2013 by comparing the maxima. A shift of 1 °C (in case of 5 -LOX 0.9°C) or more compared to the DMSO control were assumed as potentially binding of the fragment.
(§6) (1 picture or pasted object on this page, not shown here)
(In general: In DSF a fluorescence change marks the thermal transition of the protein.)

The subject of test [1] is T2, soluble epoxide hydrolase (sEH).
T2 construct: For the expression of sEH-H and sEH-Fl transformed E.coli BL21 (DE3) cells were grown in 5052; made in house; host or cells: E. coli BL21 (DE3)
Description: Differential scanning fluorimetry (DSF) screen on sEH. Format: binding. The settings on record: 500 μM fragment, mean of duplicates.
Description: as §1, §2, §3, §4
Table S4: Final concentrations in DSF experiments:
Protein Final concentrations under screening conditions […]
glycerol, 0.01% (W/V) Triton X-100, 2.05 % DMSO and 2.5x SYPRO® with a pH = 7 […]
as §5, §6

For `CCCCOc1cc(C(=O)OC)ccc1N` [Compound 3], the “DSF/ΔT m RXRα” value in the test on RXRα is −2.9±0.0 °C. Also, the “DSF/ΔT m sEH” value in test [1] came to 0.0±0.0 °C.
For `Oc1ccc(-c2ccc(F)cc2F)cc1` [Compound 9] the same measures were 2.3±0.0 °C and 1.0±0.0 °C.
Turning to `Fc1ccc(-c2c[nH]c3ccccc23)cc1` [Compound 10], the “DSF/ΔT m RXRα” value in the test on RXRα came to 1.9±0.0 °C. Also, the “DSF/ΔT m sEH” value in test [1] was 0.6±0.7 °C.
For `Oc1ccc(Cc2ccccc2)cc1` [Compound 4] the same measures were −2.4±0.7 °C and 0.0±0.0 °C.
For `Cc1cc(=O)n(-c2ccc(C)c(C)c2)[nH]1` [Compound 2] the same measures were −9.5±24.0 °C and 2.2±0.0 °C.
For `Oc1ccc2cc[nH]c2c1` [Compound 5] the same measures were 0.8±0.7 °C and 0.0±0.0 °C.
With `c1ccc(N2CCNCC2)nc1` [Compound 1], in the test on RXRα, the “DSF/ΔT m RXRα” value is 1.1±0.0 °C. Also, the “DSF/ΔT m sEH” value in test [1] turned out to be 0.0±0.0 °C.
For `Cc1ccccc1C(=O)Nc1ccccc1` [Compound 6] the same measures were −1.0±0.7 °C and 2.0±0.0 °C.
On to `CCN(Cc1ccccc1)c1ccccc1` [Compound 7], for which the “DSF/ΔT m RXRα” value in the test on RXRα was −0.4±0.7 °C. In addition, in test [1], the “DSF/ΔT m sEH” value was 1.0±0.0 °C.
